Measured values from EP0538469A1, “SULFONANILIDE DERIVATIVE AND MEDICINE” (NIPPON SHINYAKU COMPANY, LIMITED, priority 1990, dated 1991).
Read-outs that look alike come from different tables or passages of the source. Marks after values point to notes of the source that are not given here.

Columns and labels:
male rabbits [1] = assay: Action to intra urethral pressure and blood pressure, intravenous administration; assay type: in vivo; conditions: i.v.; for Selectivity (B/A): BP(ED30%↑) / IUP(ED150%↑); for ED (30%) / ED (150%): Oryctolagus cuniculus, iv, anesthetized male rabbits; for ED (30%): dose increasing blood pressure to an extent of 30%, read-out: BP(B) [BP(ED30%↑)] (converted); for ED (150%): dose increasing intra urethral pressure to an extent of 150%, read-out: IUP(A) [IUP(ED150%↑)]
Method: (§1) The experiment was conducted using male rabbits of body weight of 1.4-3.1 kg under fasted condition. The animals were fixed at backs under uretrane(1.2g/kg s.c.) anesthesia, abdomen was subjected to a midline incision and bladder was exposed. In order to prevent the urine stored in the bladder on the intra urethral pressure, the urine in the bladder was compulsorily discharged out of the body. After that, a catheter was inserted into both ureters and the urine discharged from kidney was introduced outside.
(§2) The intra urethral pressure(IUP) at the urethra tract of about 0.5-1 cm distance from the neck of the bladder was measured using a microtip transducer transducer equipped with a baloon (filled with physiological saline solution) at the top end. Further, polyethylene tube was inserted into femoral artery to measure the blood pressure (BP).
The drug to be tested was injected into the vein of ear every fifteen minutes and the maximum responses of the increasing action of intra urethral pressure tract and of the increasing action of blood pressure were measured at each dose.

mice (ddY-strain, male) = assay: Acute toxicity, oral, mice; assay type: in vivo; conditions: observed two weeks
Method: (§3) Numbers of mice (ddY-strain, male, 6-8 weeks age) and rats (SD strain, male, 6-7 weeks age) in each group were 4 and 6, respectively.
(§4) The drug to be tested was orally administered at the dose of 10 ml/kg using an oral probe to the animals which were fasted since one day before (for 16-18 hours). After giving the drug, the animals were returned to the state where both feed and water were available and the general symptom and the dead cases, if any, were checked for two weeks. The drug was suspended in physiological saline solution containing 0.5% of methylcellulose (0.5% MC) and the suspension was given to the animals by oral route.

[2] = Acute toxicity, oral, rats; assay type: in vivo; conditions: rat, in vivo, SD rats, read-out: Rats LD₅₀
Method: as §3, §4

rats (SD strain, male) = assay: Acute toxicity, oral, rats; assay type: in vivo; conditions: observed two weeks
Method: as §3, §4

smooth muscle of urethra = assay: Contraction of isolated smooth muscle of urethra (Magnus vessel, cumulative concentration/response curves); assay type: cell-based, rabbits; conditions: for EC50: Oryctolagus cuniculus, female rabbit urethra smooth muscle, contraction
Method: (§5) The experiment was conducted using female rabbits of 2 to 3.5 kg body weight.
(§6) The animals were killed by draining the blood out under anesthetizing with pentobarbital (30 mg/kg, by intravenous injection) and smooth muscle of urethra and femoral artery were excised. Each of the excised samples was placed in a Magnus vessel filled with a modified Krebs solution (at 37°C; under mixed gas) and both smooth muscle of urethra and femoral artery were suspended with 1 g load.
(§7) The drug to be tested was accumulated to contract the samples whereby the concentration/response curves were obtained wherefrom ED₅₀ (M) and pD₂ were calculated and the selectivity to urethra was determined.

femoral artery = assay: Contraction of isolated femoral artery (Magnus vessel, cumulative concentration/response curves); assay type: cell-based, rabbits; conditions: Oryctolagus cuniculus, female rabbit femoral artery, contraction
Method: as §5, §6, §7

male rabbits [3] = assay: Action to intra urethral pressure and blood pressure, administration to duodenum; assay type: in vivo
Method: as §1, §2
Abdomen right above stomach was subjected to a midline incision and, after that, the drug to be tested suspended in 0.5% methyl cellulose (0.5% MC) was administered at the dose of 0.5ml/kg to the duodenum. […] The above administration to duodenum corresponded to oral administration as the administration into digestive organ in anethetized animals.

[4] = read-out: ED₅₀ Femoral Artery(B)
[5] = read-out: pD₂ Femoral Artery(B)
[6] = 1 mg/kg i.d., 10 min after administration
[7] = 1 mg/kg i.d., 20 min after administration
[8] = 1 mg/kg i.d., 30 min after administration
[9] = 1 mg/kg i.d., 60 min after administration
[10] = 1 mg/kg i.d., 90 min after administration
[11] = 1 mg/kg i.d., 120 min after administration
[12] = 1 mg/kg i.d., 180 min after administration
[13] = 3 mg/kg i.d., 10 min after administration
[14] = 3 mg/kg i.d., 20 min after administration
[15] = 3 mg/kg i.d., 30 min after administration
[16] = 3 mg/kg i.d., 60 min after administration
[17] = 3 mg/kg i.d., 90 min after administration
[18] = 3 mg/kg i.d., 120 min after administration
[19] = 3 mg/kg i.d., 180 min after administration

In the case of `CS(=O)(=O)Nc1cccc([C@@H](O)CN)c1.Cl` [(24B), (R)-(-)-3'-(2-Amino-1-hydroxyethyl)-methanesulfonanilide hydrochloride, reference compound], the “Selectivity (B/A)” value (male rabbits [1]; hydrochloride) is reported as 1.0, the ED (30%) (male rabbits [1]) is reported as 0.019 mg/kg and the ED (150%) (male rabbits [1]) is reported as 0.019 mg/kg. The “Mice Dead/ Total” value (mice (ddY-strain, male); 1000 mg/kg) was 0 / 4, the LD50 at 336 h [2] was 23.2 mg/kg and the “Rats Dead/ Total” value (rats (SD strain, male); 5 mg/kg) was 0 / 6. The “Rats Dead/ Total” value (rats (SD strain, male); 10 mg/kg) was 2 / 6, the “Rats Dead/ Total” value (rats (SD strain, male); 30 mg/kg) was 4 / 6 and the “Rats Dead/ Total” value (rats (SD strain, male); 100 mg/kg) was 5 / 6.

For `CS(=O)(=O)Nc1ccc(F)c([C@@H](O)CN)c1.O=C(O)C(O)C(O)C(=O)O` [(49K), (R)-(-)-3'-(2-Amino-1-hydroxyethyl)-4'-fluoromethanesulfonanilide L-(+)-tartrate], the “Selectivity (B/A)” value (male rabbits [1]) was 6.6, the ED (30%) (male rabbits [1]) was 0.059 mg/kg and the ED (150%) (male rabbits [1]) was 0.009 mg/kg. The “Mice Dead/ Total” value (mice (ddY-strain, male); 1000 mg/kg) was 0 / 4, the “Mice Dead/ Total” value (mice (ddY-strain, male); 3000 mg/kg) was 0 / 4 and the LD50 at 336 h [2] was > 1000 mg/kg. For the same compound, the “Rats Dead/ Total” value (rats (SD strain, male); 100 mg/kg) was 0 / 6, the “Rats Dead/ Total” value (rats (SD strain, male); 300 mg/kg) was 0 / 6 and the “Rats Dead/ Total” value (rats (SD strain, male); 500 mg/kg) was 2 / 6. The “Rats Dead/ Total” value (rats (SD strain, male); 1000 mg/kg) was 1 / 6.

In the case of `CNCC(O)c1cccc(NS(C)(=O)=O)c1` (centres unmarked) [Amidephrine, reference compound], the “Selectivity (B/A)” value (smooth muscle of urethra; ED₅₀ femoral artery / ED₅₀ urethra) is reported as 0.18, the EC50 (smooth muscle of urethra; read-out: ED₅₀ Urethra(A)) is reported as 10800 nM and the EC50 (smooth muscle of urethra; read-out: pD₂ Urethra(A)) is reported as 10700 nM. The EC50 (femoral artery; [4]) was 1960 nM, the EC50 (femoral artery; [5]) was 1950 nM and the “Change(%) BP” value (male rabbits [3]; [6]) was 2.4%. The “Change(%) BP” value (male rabbits [3]; [7]) was -0.1%, the “Change(%) BP” value (male rabbits [3]; [8]) was 2.2% and the “Change(%) BP” value (male rabbits [3]; [9]) was 7.2* %. The “Change(%) BP” value (male rabbits [3]; [10]) was 14.3** %, the “Change(%) BP” value (male rabbits [3]; [11]) was 10.3* % and the “Change(%) BP” value (male rabbits [3]; [12]) was 3.7** %. The “Change(%) BP” value (male rabbits [3]; [13]) was 5.8%, the “Change(%) BP” value (male rabbits [3]; [14]) was 3.7% and the “Change(%) BP” value (male rabbits [3]; [15]) was 4.1%. The “Change(%) BP” value (male rabbits [3]; [16]) was 20.7** %, the “Change(%) BP” value (male rabbits [3]; [17]) was 34.4** % and the “Change(%) BP” value (male rabbits [3]; [18]) was 39.1** %. The “Change(%) BP” value (male rabbits [3]; [19]) was 31.1** %, the “Change(%) IUP” value (male rabbits [3]; [6]) was 0.7% and the “Change(%) IUP” value (male rabbits [3]; [7]) was 0.6%. For the same compound, the “Change(%) IUP” value (male rabbits [3]; [8]) was 8.3%, the “Change(%) IUP” value (male rabbits [3]; [9]) was 47.6** % and the “Change(%) IUP” value (male rabbits [3]; [10]) was 56.8** %. For the same compound, the “Change(%) IUP” value (male rabbits [3]; [11]) was 46.1* %, the “Change(%) IUP” value (male rabbits [3]; [12]) was 32.1% and the “Change(%) IUP” value (male rabbits [3]; [13]) was -4.5%. The “Change(%) IUP” value (male rabbits [3]; [14]) was 15.9%, the “Change(%) IUP” value (male rabbits [3]; [15]) was 47.1** % and the “Change(%) IUP” value (male rabbits [3]; [16]) was 108.5** %. For the same compound, the “Change(%) IUP” value (male rabbits [3]; [17]) was 107.8** %, the “Change(%) IUP” value (male rabbits [3]; [18]) was 92.7** % and the “Change(%) IUP” value (male rabbits [3]; [19]) was 92.2** %. The “Mice Dead/ Total” value (mice (ddY-strain, male); 1000 mg/kg) was 0 / 4, the “Mice Dead/ Total” value (mice (ddY-strain, male); 3000 mg/kg) was 3 / 4 and the LD50 at 336 h [2] was 12.4 mg/kg. The “Rats Dead/ Total” value (rats (SD strain, male); 5 mg/kg) was 0 / 6, the “Rats Dead/ Total” value (rats (SD strain, male); 10 mg/kg) was 3 / 6 and the “Rats Dead/ Total” value (rats (SD strain, male); 20 mg/kg) was 4 / 6. The “Rats Dead/ Total” value (rats (SD strain, male); 30 mg/kg) was 6 / 6.

Work on `CNC[C@H](O)c1cccc(O)c1` [Phenylephrine] yielded an EC50 (smooth muscle of urethra; read-out: ED₅₀ Urethra(A)) of 3750 nM, an EC50 (smooth muscle of urethra; read-out: pD₂ Urethra(A)) of 3720 nM and an EC50 (femoral artery; [4]) of 480 nM. For the same compound, the EC50 (femoral artery; [5]) was 479 nM, the ED (30%) (male rabbits [1]) was 0.019 mg/kg and the ED (150%) (male rabbits [1]) was 0.037 mg/kg.
